Values after ≈ are worked out from the molar mass of the structure shown. Like-named read-outs stand apart in the source and are kept apart here. Marks after values point to notes of the source that are not given here.
What was measured:
[1] = test system: Penicillium chrysogenum Thom ATCC 48908; assay: Well diffusion assay (zone of inhibition); assay type: cell-based; conditions: for zone of inhibition at 175000 µM / zone of inhibition at 350000 µM: Penicillium chrysogenum, read-out: Zone of inhibition, Average ± standard deviation
[2] = test system: Aspergillus niger isolate; assay: Minimum fungicidal concentration (MFC); assay type: cell-based; conditions: for MFC: Aspergillus niger, read-out: Minimum fungicidal concentration
[3] = test system: Aspergillus niger ATCC 24126; assay: Well diffusion assay (zone of inhibition); assay type: cell-based; conditions: for zone of inhibition at 175000 µM / zone of inhibition at 350000 µM: Aspergillus niger, read-out: Zone of inhibition, Average ± standard deviation
A. niger = assay: Fungicidal effect in mold suspension, one hour treatment, DRBC plating; assay type: cell-based, Aspergillus niger; conditions: for A. niger count, Average ± standard deviation: n = 3
Method: Preparation of mold suspension. Aspergillus niger ATCC 24126 and Penicillium chrysogenum Thom ATCC 48908 were purchased from American Type Culture Collection (ATCC). The strains were stored at −80° C. in glycerol. Prior to test, both strains were revived by streaking a loopful of culture onto DRBC (i.e., dichloran rose-bengal chloramphenicol (CM1148B; Thermo Scientific Oxoid) prepared as per recommended by supplier) with 72 hours incubation at 25° C. The three-days old mold culture lawn was diluted in phosphate buffer (0.30 mM; pH 7.2) to obtain a mold suspension of ca. 10^6 CFU/mL. The colony count of the suspension was determined through conventional plating method using DRBC agar at the appropriate dilution. Briefly, the mold suspension was diluted to the appropriate dilution with phosphate buffer (0.30 mM; pH 7.2). Upon dilution, 100 μL of the diluted mold suspension was spread onto the DRBC agar. After which, the plates were incubated at 25° C. for five days prior to counting. Tests were carried out in triplicates.
Fungicidal effect of PPA against A. niger. The fungicidal effect of PPA in solution was evaluated in comparison to propionic acid and hydrogen peroxide. To serve as a positive control and comparison point, propionic acid, was tested at two concentrations, 1500 and 3000 ppm, equivalent to 0.02 and 0.04 mol/L. On the other hand, PPA was tested at a single concentration of 0.02 mol/L. To evaluate the effect of hydrogen peroxide, hydrogen peroxide was also included as one of the treatment groups. Hydrogen peroxide was tested at 2.43% w/w. The concentration of hydrogen peroxide to be tested is calculated based on the equivalent amount present in 0.02 mol/L of PPA, which is the sum of hydrogen peroxide already present and from the potential breakdown of PPA. A 900 μL of mold suspension (of c.a. 10^6 CFU/mL prepared in 0.9% sodium chloride) was treated with 100 μL of the test solutions (prepared in sterile water) for one hour.
After one hour, the treatment solutions were neutralized with 2 mL of sodium thiosulphate and 7 mL of phosphate buffer (0.3 mM; pH 7.2). The solution was at 10-1 dilution. Subsequently the solution was further diluted up to 10-5 with phosphate buffer. The mold count for each treatment was determined through conventional plating method using DRBC agar. Test was conducted in triplicates. Controls were prepared with i) 100 μL of sterile water instead of test solutions and ii) 900 μL of 0.9% sodium chlorine instead of mold suspension and 100 μL of sterile water instead of test solutions.

[4] = test system: mold in naturally contaminated feed for laying hens; assay: Mold counts in naturally contaminated laying hen feed, 7 days; conditions: 2500 ppm peroxyacid on feed, 7 days at 25° C.
Method: PPA acid and peracetic acid stock solutions were provided at a concentration of 20% peroxyacid. The treatment solutions were diluted to the correct concentration with ASTM Type II water before application of the treatments. Feed for laying hens that is naturally contaminated with mold was used for the study. The initial mold count of the feed was log 4.66 cfu/g. For each treatment, 100 g of feed was treated with 1.5 ml of the diluted PPA, peracetic acid or a 1:1 mix of PPA acid and peracetic acid, resulting in a final concentration of 2500 ppm of peroxyacid on the feed. The negative control treatment was treated with 1.5 ml of water. The feed was kept for 7 days at 25° C. before analysis.
Triplicate 5 g feed samples from each treatment were taken and tested for molds. Each sample was mixed vigorously with 0.1% peptone water 30 s and then a 0.1 ml aliquot of the sample was plated on DRBC agar and incubated upright in a 25° C. incubator for 5 days before counting.

[5] = test system: Aspergillus spp., Penicillium spp, and Fusarium spp.; conditions: Higgins et al. 1999; cited from earlier work
Aspergillus niger = conditions: cited from earlier work
Penicillium vericulosum = conditions: cited from earlier work
[6] = ATCC48908, 0.175 mol/L active, 72 hours, n = 3
[7] = ATCC48908, 0.350 mol/L active, 72 hours, n = 3
[8] = 48 hours at 25° C., then DRBC plate 5 days at 25° C.
[9] = 0.175 mol/L active, 72 hours, n = 3
[10] = 0.350 mol/L active, 72 hours, n = 3

## CC(=O)O [Acetic acid]
[1]; [6]
  zone of inhibition at 175000 µM: 8.97 ± 0.55 mm
[1]; [7]
  zone of inhibition at 350000 µM: 10.9 ± 0.75 mm
[2]; [8]
  MFC: > 5000 µg/mL

## CCCC(=O)O [Butyric acid]
[2]; [8]
  MFC: 5000 µg/mL (≈ 56.7 mM)

## OO [Hydrogen peroxide]
[3]; 0.3% v/v, 72 hours, n = 3
  Zone of inhibition, Average ± standard deviation: 8.00 ± 0.00^b mm
[3]; 0.6% v/v, 72 hours, n = 3
  Zone of inhibition, Average ± standard deviation: 9.42 ± 0.16^bc mm
[3]; 1.0% v/v, 72 hours, n = 3
  Zone of inhibition, Average ± standard deviation: 10.93 ± 0.31^bc mm
[1]; 0.3% v/v, 72 hours, n = 3
  Zone of inhibition, Average ± standard deviation: 17.10 ± 0.05^cd mm
[1]; 0.6% v/v, 72 hours, n = 3
  Zone of inhibition, Average ± standard deviation: 19.32 ± 0.76^de mm
[1]; 1.0% v/v, 72 hours, n = 3
  Zone of inhibition, Average ± standard deviation: 22.08 ± 0.34d^ef mm
A. niger; 2.43%
  reduction of A. niger count: approximately 1.2 log CFU/mL
A. niger; 2.43% v/v
  A. niger count, Average ± standard deviation: 4.75 ± 0.13^b log CFU/mL

## CCC(=O)OO [PPA, perpropionic acid]
[3]; [9]
  Zone of inhibition, Average ± standard deviation: 16.42 ± 2.19^d mm
[3]; [10]
  Zone of inhibition, Average ± standard deviation: 25.67 ± 2.05^e mm
[4]
  mold counts seven days after treatment versus control: not significantly different from the control treatment
[1]; [9]
  Zone of inhibition, Average ± standard deviation: 23.80 ± 0.58^ef mm
[1]; [10]
  Zone of inhibition, Average ± standard deviation: 35.45 ± 4.55^g mm
A. niger; 0.02 mol/L
  reduction of A. niger count: at least 4 log CFU/mL
[2]; [8]
  Minimum fungicidal concentration: 500 ppm
[2]; from the MFC study
  times more effective in killing mold than propionic acid: at least 5 times

## CC(=O)OO [Peracetic acid]
[3]; ATCC24126, 72 h
  zone of inhibition at 175000 µM: 16 ± 0.8 mm
  zone of inhibition at 350000 µM: 24.7 ± 2.04 mm
[4]
  mold counts seven days after treatment versus control: not significantly different from the control treatment
[1]; ATCC48908, 72 h
  zone of inhibition at 175000 µM: 24.1 ± 0.33 mm
  zone of inhibition at 350000 µM: 36 ± 3.8 mm
[2]
  MFC: 1000 µg/mL (≈ 13.1 mM)

## CCC(=O)O [Propionic acid]
[3]; ATCC24126, 0.175 mol/L active, 72 hours, n = 3
  zone of inhibition at 175000 µM: 9.42 ± 0.66 mm
[3]; ATCC24126, 0.350 mol/L active, 72 hours, n = 3
  zone of inhibition at 350000 µM: 12.12 ± 0.03 mm
[1]; [6]
  zone of inhibition at 175000 µM: 9.15 ± 0.45 mm
[1]; [7]
  zone of inhibition at 350000 µM: 12.1 ± 0.43 mm
[5]
  concentration for complete inhibition: lower than 0.35%
Aspergillus niger
  concentration capable of inhibiting: 1000-2000 ppm
A. niger; 0.02 mol/L
  reduction of A. niger count: no count reduction
  A. niger count, Average ± standard deviation: 6.01 ± 0.08^c log CFU/mL
A. niger; 0.04 mol/L (3000 ppm)
  fungicidal effect: no fungicidal effect
A. niger; 0.04 mol/L
  A. niger count, Average ± standard deviation: 6.08 ± 0.11^c log CFU/mL
Penicillium vericulosum
  concentration capable of inhibiting: 1000-2000 ppm
[2]; [8]
  Minimum fungicidal concentration: >5000 ppm
